The assay is described as follows: Topical vasoconstrictor formulation applied to hair-bearing areas of patients receiving cancer chemotherapy; hair loss. The class given is in vivo.

`Cc1cc(C(C)(C)C)c(O)c(C)c1CC1=NCCN1` [Oxymetazoline, oxymetazoline]: where the note is “Oxymetazoline 2.0% by weight in hydroethanolic foam, scalp and eyebrows, 60 minutes prior to intravenous nitrogen mustard, then three times daily for two week intervals”, the hair loss entry was “prevention of major hair loss”.
Take `c1ccc2c(CC3=NCCN3)cccc2c1` [naphazoline]: the hair loss entry (scalp lotion containing 0.01% naphazoline, 30 minutes prior to and 15 minutes after each course of intravenous docetaxel, breast cancer patients) is recorded as “lose little, if any, of their hair”.

Source of the values: patent US20130079312A1, “Method of Treating Hair Loss Due to Systemic Chemotherapy” (ELORAC, LTD., priority 2011, published 2013).
